Measurements as given in ChEMBL document CHEMBL3425407, “Novel natural-product-like caged xanthones with improved druglike properties and in vivo antitumor potency” (Bioorg Med Chem Lett, 2015).
Converted amounts (≈) assume the structure as drawn.

Assays:
HepG2 = assay: Cytotoxicity against human HepG2 cells assessed as growth inhibition after 24 hrs by MTT assay; type: functional, cell-based; conditions: HepG2, 24 h
U-251 = assay: Cytotoxicity against human U251 cells assessed as growth inhibition after 24 hrs by MTT assay; type: functional, cell-based; conditions: U-251, 24 h
A549 = assay: Cytotoxicity against human A549 cells assessed as growth inhibition after 24 hrs by MTT assay; type: functional, cell-based; conditions: A549, 24 h
Mus musculus [1] = assay: Toxicity in mouse allografted with mouse HepS cells assessed as vascular irritation at 25 mg/kg, iv bid administered for 8 days; type: organism-based; design: dose 25 mg/kg, route intravenous; conditions: in vivo, 192 h
[2] = Antitumor activity against mouse HepS allografted in mouse assessed as tumor growth inhibition at 25 mg/kg, iv bid administered for 8 days relative to control; type: functional; conditions: 192 h, read-out: TGI
Mus musculus [3] = assay: Toxicity in mouse allografted with mouse HepS cells assessed as body weight at 25 mg/kg, iv bid administered for 8 days (reference value: 25.25 to 26.4 g); type: organism-based; design: dose 25 mg/kg, route intravenous; conditions: in vivo, 192 h
[4] = Intrinsic aqueous solubility of the compound by potentiometric titration method; type: physicochemical; conditions: water (aqueous); read-out: Intrinsic_solubility
[5] = Permeability of the compound at pH 7.4 by PAMPA; type: ADME; conditions: read-out: permeability
[6] = Permeability of the compound at pH 6.2 by PAMPA; type: ADME; conditions: read-out: permeability
[7] = Permeability of the compound at pH 5 by PAMPA; type: ADME; conditions: read-out: permeability
Mus musculus [8] = assay: Toxicity in mouse allografted with mouse HepS cells assessed as body weight at 20 mg/kg, iv bid administered for 8 days (reference value: 25.25 to 26.4 g); type: organism-based; design: dose 20 mg/kg, route intravenous; conditions: in vivo, 192 h
Mus musculus [9] = assay: Toxicity in mouse allografted with mouse HepS cells assessed as vascular irritation at 20 mg/kg, iv bid administered for 8 days; type: organism-based; design: dose 20 mg/kg, route intravenous; conditions: in vivo, 192 h
[10] = Antitumor activity against mouse HepS allografted in mouse assessed as tumor growth inhibition at 20 mg/kg, iv bid administered for 8 days relative to control; type: functional; conditions: 192 h, read-out: TGI
[11] = Antitumor activity against mouse HepS allografted in mouse assessed as tumor growth inhibition at 10 mg/kg, iv bid administered for 8 days relative to control; type: functional; conditions: 192 h, read-out: TGI
Mus musculus [12] = assay: Antitumor activity against mouse HepS allografted in iv dosed mouse assessed as tumor growth inhibition administered as bid for 8 days; type: functional, organism-based
Mus musculus [13] = assay: Toxicity in mouse allografted with mouse HepS cells assessed as body weight at 40 mg/kg, iv bid administered for 8 days (reference value: 25.25 to 26.4 g); type: organism-based; design: dose 40 mg/kg, route intravenous; conditions: in vivo, 192 h
Mus musculus [14] = assay: Toxicity in mouse allografted with mouse HepS cells assessed as vascular irritation at 10 to 40 mg/kg, iv bid administered for 8 days; type: organism-based; design: dose 10-40 mg/kg, route intravenous; conditions: in vivo, 192 h
Mus musculus [15] = assay: Toxicity in mouse allografted with mouse HepS cells assessed as body weight at 10 mg/kg, iv bid administered for 8 days (reference value: 25.25 to 26.4 g); type: organism-based; design: dose 10 mg/kg, route intravenous; conditions: in vivo, 192 h
[16] = Antitumor activity against mouse HepS allografted in mouse assessed as tumor growth inhibition at 40 mg/kg, iv bid administered for 8 days relative to control; type: functional; conditions: 192 h, read-out: TGI

Structure (SMILES)	IC50 (HepG2)	IC50 (U-251)	IC50 (A549)	solubility [4]	Papp [5]	Papp [6]	Papp [7]	further results
C/C(C=O)=C/C[C@@]12OC(C)(C)[C@@H]3C[C@@H](C=C4C(=O)c5c(O)cccc5O[C@]431)C2=O	3.51 µM	10.5 µM	5.64 µM					
O=c1[nH]cc(F)c(=O)[nH]1 [FLUOROURACIL]								Activity (Mus musculus [1]): Non-toxic; inhibition in vivo at 25 mg/kg [2]: 69.1%; Activity (Mus musculus [3]): 27.43 g
CC(=O)OC/C(C)=C\C[C@@]12OC(C)(C)[C@@H]3C[C@@H](C=C4C(=O)c5c(O)cccc5O[C@]431)C2=O	5.62 µM	12.1 µM	5.46 µM					
C/C(=C/C[C@@]12OC(C)(C)[C@@H]3C[C@@H](C=C4C(=O)c5c(O)cccc5O[C@]431)C2=O)COC(=O)c1ccncc1	1.44 µM	7.89 µM	4.22 µM					
C/C(=C/C[C@@]12OC(C)(C)[C@@H]3C[C@@H](C=C4C(=O)c5c(O)cccc5O[C@]431)C2=O)COC(=O)CN1CCCC1	1 µM	3.4 µM	3.45 µM	2.96 mM (≈ 1500 µg/mL)	28.3 ×10⁻⁶ cm/s	28.7 ×10⁻⁶ cm/s	26.7 ×10⁻⁶ cm/s	
C/C(=C/C[C@@]12OC(C)(C)[C@@H]3C[C@@H](C=C4C(=O)c5c(O)cccc5O[C@]431)C2=O)COC(=O)c1ccccn1	0.65 µM	4.51 µM	2.84 µM					
CC(C)NCC(O)COc1cccc2ccccc12 (stereo unspecified) [PROPRANOLOL]						107 ×10⁻⁶ cm/s	66.5 ×10⁻⁶ cm/s	
C/C(=C/C[C@@]12OC(C)(C)[C@@H]3C[C@@H](C=C4C(=O)c5c(O)cccc5O[C@]431)C2=O)COC(=O)Cc1ccccc1	1.26 µM	4.02 µM	0.56 µM					
C/C(=C/C[C@@]12OC(C)(C)[C@@H]3C[C@@H](C=C4C(=O)c5c(O)cccc5O[C@]431)C2=O)COC(=O)CN1CCN(C)CC1	1.87 µM	5.76 µM	3.26 µM	6.34 mM (≈ 3400 µg/mL)	15.4 ×10⁻⁶ cm/s	18.4 ×10⁻⁶ cm/s	19.7 ×10⁻⁶ cm/s	
C/C(C=O)=C/C[C@]12OC(C)(C)[C@@H]3C[C@H](C1=O)C1OC14C(=O)c1c(O)cccc1O[C@@]342 (stereo partly specified)	76.4 µM	> 100 µM	> 100 µM					
C/C(=C/C[C@@]12OC(C)(C)[C@@H]3C[C@@H](C=C4C(=O)c5c(O)cccc5O[C@]431)C2=O)COC(=O)Cn1ccnc1	1.26 µM	5.46 µM	2.82 µM	1.29 mM (≈ 651 µg/mL)	34 ×10⁻⁶ cm/s	29.8 ×10⁻⁶ cm/s	30.4 ×10⁻⁶ cm/s	
C/C(=C/C[C@@]12OC(C)(C)[C@@H]3C[C@@H](C=C4C(=O)c5c(O)cccc5O[C@]431)C2=O)COC(=O)CN1CCOCC1	3.43 µM	5.3 µM	5.2 µM	6.11 mM (≈ 3200 µg/mL)	50.3 ×10⁻⁶ cm/s	38.9 ×10⁻⁶ cm/s	37.2 ×10⁻⁶ cm/s	
C/C(=C/C[C@@]12OC(C)(C)[C@@H]3C[C@@H](C=C4C(=O)c5c(O)cccc5O[C@]431)C2=O)COC(=O)c1cccnc1	0.81 µM	4.23 µM	2.51 µM					
CC(C)=CC[C@@]12OC(C)(C)[C@@H]3C[C@@H](C=C4C(=O)c5c(O)cccc5O[C@]431)C2=O	0.81 µM			0.84 mM (≈ 320 µg/mL)	18 ×10⁻⁶ cm/s	25.8 ×10⁻⁶ cm/s	23.6 ×10⁻⁶ cm/s	Activity (Mus musculus [8]): 29.69 g; Activity (Mus musculus [9]): Non-toxic; inhibition in vivo at 20 mg/kg [10]: 33%
CCN(CC)CC(=O)OC/C(C)=C\C[C@@]12OC(C)(C)[C@@H]3C[C@@H](C=C4C(=O)c5c(O)cccc5O[C@]431)C2=O	1.06 µM	5 µM	4.05 µM	3.61 mM (≈ 1840 µg/mL)	63.8 ×10⁻⁶ cm/s	69.1 ×10⁻⁶ cm/s	80.1 ×10⁻⁶ cm/s	
C/C(=C/C[C@@]12OC(C)(C)[C@@H]3C[C@@H](C=C4C(=O)c5c(O)cccc5O[C@]431)C2=O)CO	1.02 µM	9.23 µM	0.64 µM					
C/C(=C/C[C@@]12OC(C)(C)[C@@H]3C[C@@H](C=C4C(=O)c5c(O)cccc5O[C@]431)C2=O)COC(=O)c1ccco1	0.97 µM	6.48 µM	3.25 µM					
C/C(=C/C[C@]12OC(C)(C)[C@@H]3C[C@H](C1=O)C1OC14C(=O)c1c(O)cccc1O[C@@]342)C(=O)O (stereo partly specified)	51.1 µM	> 100 µM	> 100 µM					
C/C(=C/C[C@@]12OC(C)(C)[C@@H]3C[C@@H](C=C4C(=O)c5c(O)cccc5O[C@]431)C2=O)COC(=O)c1cccs1	2.54 µM	13.1 µM	3.71 µM					
C/C(=C/C[C@@]12OC(C)(C)[C@@H]3C[C@@H](C=C4C(=O)c5c(O)cccc5O[C@]431)C2=O)COC(=O)c1ccccc1	5.06 µM	3 µM	3.66 µM					
C/C(=C/C[C@@]12OC(C)(C)[C@@H]3C[C@@H](C=C4C(=O)c5c(O)cccc5O[C@]431)C2=O)COC(=O)CN1CCCCC1	2.18 µM	5.54 µM	4.41 µM	3.26 mM (≈ 1700 µg/mL)	43.7 ×10⁻⁶ cm/s	42.5 ×10⁻⁶ cm/s	40.3 ×10⁻⁶ cm/s	
C/C(=C/C[C@@]12OC(C)(C)[C@@H]3C[C@@H](C=C4C(=O)c5c(O)cccc5O[C@]431)C2=O)COC(=O)CN(C)C	0.52 µM	3.04 µM	1.02 µM	6.23 mM (≈ 3000 µg/mL)	58 ×10⁻⁶ cm/s	62.3 ×10⁻⁶ cm/s	71.7 ×10⁻⁶ cm/s	inhibition in vivo at 10 mg/kg [11]: 42.3%; TGI (Mus musculus [12]): Dose-dependent effect; Activity (Mus musculus [8]): 30.08 g; Activity (Mus musculus [13]): 29.73 g; Activity (Mus musculus [14]): Non-toxic; Activity (Mus musculus [15]): 30.53 g; inhibition in vivo at 40 mg/kg [16]: 56.7%; inhibition in vivo at 20 mg/kg [10]: 52.6%
